Measured values reported in US9783509B2, “Six-membered C-N-linked aryl sulfide derivatives and aryl sulfoxide derivatives as pest conrol agents” (BAYER CROPSCIENCE AKTIENGESELLSCHAFT, priority 2013, dated 2017).
Values belong to the compound of their own block, whether it stands above or below them.

Experiments:
[1] = tested on: engorged adult female cattle ticks (Boophilus microplus); assay: Boophilus microplus injection test; format: in vivo; details: application rate 20 μg/animal, assessed after 7 days
Method: Boophilus microplus—Injection Test
Solvent: dimethyl sulphoxide
To produce an appropriate active ingredient formulation, 10 mg of active ingredient are mixed with 0.5 ml of solvent and the concentrate is diluted with solvent to the desired concentration.
1 μl of the active ingredient solution is injected into the abdomen of 5 engorged adult female cattle ticks (Boophilus microplus). The animals are transferred into dishes and kept in a climate-controlled room.
The efficacy is assessed after 7 days by laying of fertile eggs. Eggs which are not visibly fertile are stored in a climate-controlled cabinet until the larvae hatch after about 42 days. An efficacy of 100% means that none of the ticks has laid any fertile eggs; 0% means that all the eggs are fertile.

[2] = tested on: greenhouse red spider mite (Tetranychus urticae); assay: Tetranychus urticae spray test, OP-resistant (bean leaf discs); format: in vivo; details: application rate 500 g/ha, after 6 days
Outline: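 Compound dissolved in acetone/DMF and diluted in water with 1000 ppm alkylaryl polyglycol ether emulsifier, then sprayed on bean leaf discs infested with all stages of OP-resistant T. urticae. Mortality in % scored after 6 days (100% = all mites killed).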

[3] = log P by reversed-phase HPLC analogously to OECD Guideline 117; format: physicochemical; details: for LogP[a]: [a] acidic range, pH 2.7, formic acid (or trifluoroacetic acid)/acetonitrile; for LogP[b]: [b] neutral range, pH 7.8, ammonium hydrogencarbonate/acetonitrile
Outline: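 Retention on reversed-phase C18 HPLC (LC-MS), acidic runs at pH 2.7 with formic acid or trifluoroacetic acid/acetonitrile gradients, neutral runs at pH 7.8 with 0.001 molar ammonium hydrogencarbonate/acetonitrile. log P obtained by linear interpolation of retention times against unbranched alkan-2-ones (C3–C16) of known log P.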

[4] = tested on: southern root-knot nematode (Meloidogyne incognita); assay: Meloidogyne incognita test (sand, lettuce, acetone solvent, 14 days); format: in vivo; details: application rate 20 ppm, after 14 days
Method: Meloidogyne incognita Test
Solvent: 125.0 parts by weight of acetone
To produce an appropriate active ingredient formulation, 1 part by weight of active ingredient is mixed with the stated amount of solvent and the concentrate is diluted with water to the desired concentration.
Vessels are filled with sand, active ingredient solution, an egg/larvae suspension of the southern root-knot nematode (Meloidogyne incognita) and lettuce seeds. The lettuce seeds germinate and the plants develop. The galls develop on the roots
After 14 days, the nematicidal efficacy in % is determined by the formation of galls. 100% means that no galls were found; 0% means that the number of galls on the treated plants corresponds to the untreated control.

[5] = tested on: larvae of the mustard beetle (Phaedon cochleariae); assay: Phaedon cochleariae spray test; format: in vivo; details: application rate 500 g/ha, after 7 days
Method: Phaedon cochleariae—Spray Test
Solvent: 78.0 parts by weight of acetone • • 1.5 parts by weight of dimethylformamide
(§1) Emulsifier: alkylaryl polyglycol ether
(§2) To produce an appropriate active ingredient formulation, 1 part by weight of active ingredient is dissolved using the specified parts by weight of solvent and made up with water containing an emulsifier concentration of 1000 ppm until the desired concentration is attained. To produce further test concentrations, the preparation is diluted with emulsifier-containing water.
Discs of Chinese cabbage leaves (Brassica pekinensis) are sprayed with an active ingredient formulation of the desired concentration and, after drying, populated with larvae of the mustard beetle (Phaedon cochleariae).
After 7 days, the efficacy in % is determined. 100% means that all the beetle larvae have been killed; 0% means that no beetle larvae have been killed.

[6] = tested on: green peach aphid (Myzus persicae); assay: Myzus persicae spray test (Chinese cabbage leaf discs); format: in vivo; details: application rate 500 g/ha, after 6 days
Method: Myzus persicae—Spray Test
Solvent: 78 parts by weight of acetone • • 1.5 parts by weight of dimethylformamide
as §1, §2
Discs of Chinese cabbage leaves (Brassica pekinensis) infested by all stages of the green peach aphid (Myzus persicae) are sprayed with an active ingredient formulation of the desired concentration.
After 6 days, the efficacy in % is determined 100% means that all the aphids have been killed; 0% means that none of the aphids have been killed.

[7] = tested on: greenhouse red spider mite (Tetranychus urticae); assay: Tetranychus urticae spray test, OP-resistant (bean plants); format: in vivo; details: application rate 20 ppm, after 7 days
Method: Tetranychus urticae—Spray Test, OP-Resistant
Solvent: 7 parts by weight of dimethylformamide
as §1
as §2, with “water. If the addition of ammonium salts or/and penetrants is required, these are each added in a concentration of 1000 ppm to the formulation solution.” for “water.”
Bean plants (Phaseolus vulgaris) heavily infested by all stages of the greenhouse red spider mite (Tetranychus urticae) are treated by spraying with the active ingredient formulation in the desired concentration.
After 7 days, the efficacy in % is determined. 100% means that all the spider mites have been killed; 0% means that none of the spider mites have been killed.

SMILES: Cc1cc(C)c([S+]([O-])CC(F)(F)F)cc1-n1ncc(=O)n(C)c1=O (racemic) [compound 4]
- efficacy (no fertile eggs laid) [1]: 100%
- efficacy (spider mites killed) [2]: 100%
- LogP[a] [3]: 2.01

SMILES: Cc1cc(C)c([S+]([O-])CC(F)(F)F)cc1-n1ncc(=O)n(CC(F)(F)F)c1=O (racemic) [compound 6]
- efficacy (no fertile eggs laid) [1]: 100%
- efficacy (spider mites killed) [2]: 90%
- LogP[a] [3]: 2.73

SMILES: Cc1cc(F)c(-n2ncc(=O)n(CC(F)(F)F)c2=O)cc1[S+]([O-])CC(F)(F)F (racemic) [compound 9]
- efficacy (no fertile eggs laid) [1]: 100%
- nematicidal efficacy (formation of galls) [4]: 100%
- efficacy (spider mites killed) [2]: 100%
- LogP[a] [3]: 2.65

SMILES: O=c1cnn(-c2cc([S+]([O-])CC(F)(F)F)c(Cl)cc2Cl)c(=O)n1CC(F)(F)F (racemic) [compound 11]
- efficacy (no fertile eggs laid) [1]: 100%
- nematicidal efficacy (formation of galls) [4]: 90%
- efficacy (spider mites killed) [2]: 100%
- LogP[a] [3]: 3.21

SMILES: CCn1c(=O)cnn(-c2cc([S+]([O-])CC(F)(F)F)c(C)cc2F)c1=O (racemic) [compound 21]
- efficacy (no fertile eggs laid) [1]: 100%
- nematicidal efficacy (formation of galls) [4]: 100%
- efficacy (spider mites killed) [2]: 100%
- LogP[a] [3]: 2.24
- LogP[b] [3]: 2.22

SMILES: Cc1cc(F)c(-n2ncc(=O)n(CC(C)C)c2=O)cc1[S+]([O-])CC(F)(F)F (racemic) [compound 22]
- efficacy (no fertile eggs laid) [1]: 100%
- nematicidal efficacy (formation of galls) [4]: 90%
- efficacy (spider mites killed) [2]: 100%
- LogP[a] [3]: 2.92
- LogP[b] [3]: 2.9

SMILES: Cc1cc(F)c(-n2ncc(=O)n(CC3CC3)c2=O)cc1[S+]([O-])CC(F)(F)F (racemic) [compound 27]
- nematicidal efficacy (formation of galls) [4]: 100%
- efficacy (beetle larvae killed) [5]: 100%
- efficacy (spider mites killed) [2]: 100%
- LogP[a] [3]: 2.72
- LogP[b] [3]: 2.65

SMILES: Cc1cc(F)c(-n2ncc(=O)n(CC#N)c2=O)cc1[S+]([O-])CC(F)(F)F (racemic) [compound 44]
- efficacy (aphids killed) [6]: 90%
- efficacy (spider mites killed) [7]: 95%
- LogP[a] [3]: 2.02
- LogP[b] [3]: 1.96

SMILES: Cc1cc(F)c(-n2ncc(=O)n(Cc3ccccc3)c2=O)cc1[S+]([O-])CC(F)(F)F (racemic) [compound 45]
- efficacy (spider mites killed) [7]: 90%
- LogP[a] [3]: 3.00
- LogP[b] [3]: 2.9

- LogP[a] [3]: 1.51
- LogP[b] [3]: 1.45
SMILES: Cc1cc(F)c(-n2ncc(=O)n(Cc3ccc[n+]([O-])c3)c2=O)cc1[S+]([O-])CC(F)(F)F (racemic) [compound 48]
- efficacy (aphids killed) [6]: 90%

- LogP[a] [3]: 1.47
- LogP[b] [3]: 2.00
SMILES: Cc1cc(F)c(-n2ncc(=O)n(Cc3cccnc3)c2=O)cc1[S+]([O-])CC(F)(F)F (racemic) [compound 49]
- efficacy (aphids killed) [6]: 90%

SMILES: Cc1cc(F)c(-n2ccc(=O)n(CC(F)(F)F)c2=O)cc1[S+]([O-])CC(F)(F)F (racemic) [compound 60]
- nematicidal efficacy (formation of galls) [4]: 100%
- efficacy (beetle larvae killed) [5]: 100%
- efficacy (spider mites killed) [7]: 100%
- LogP[a] [3]: 2.31
- LogP[b] [3]: 2.34
